Results from patent US5563155A, “Individual stereosiomers of 7-[3-(aminoalkyl)-1-pyrrolidinyl]-quinolones and naphthyridones as antibacterial agents” (Warner-Lambert Company, priority 1995, dated 1996).
≈ marks a conversion by molar mass, not a printed value. Read-outs that look alike come from different tables or passages of the source.

Experiments:
[1] = system: Strep. faecalis MGH-2; assay: in vitro antibacterial activity, microtitration dilution (MIC), Strep. faecalis MGH-2; assay type: cell-based; conditions: Enterococcus faecalis, MGH2, read-out: minimum inhibiting concentration (MIC)
Procedure, shortened: (§1)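 MIC determined in vitro by microtitration broth dilution; values reported in μg/mL.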

[2] = system: Staph. aureus UC-76; assay: in vitro antibacterial activity, microtitration dilution (MIC), Staph. aureus UC-76; assay type: cell-based; conditions: Staphylococcus aureus, UC76, read-out: minimum inhibiting concentration (MIC)
Procedure, shortened: as §1

[3] = system: Staph. aureus H 228; assay: in vitro antibacterial activity, microtitration dilution (MIC), Staph. aureus H 228; assay type: cell-based; conditions: Staphylococcus aureus, H228, read-out: minimum inhibiting concentration (MIC)
Procedure, shortened: as §1

[4] = system: Strep. pheumoniae SV-1; assay: in vitro antibacterial activity, microtitration dilution (MIC), Strep. pneumoniae SV-1; assay type: cell-based; conditions: Streptococcus pneumoniae, SV1, read-out: minimum inhibiting concentration (MIC)
Procedure, shortened: as §1

[5] = system: Strep. pheumoniae SV-1; assay: median protective dose in mice given lethal systemic infections, Strep. pneumoniae SV-1; assay type: in vivo; conditions: Streptococcus pneumoniae, single dose at time of challenge, read-out: median protective dose (PD50)
Experimental: (§2) The in vivo activity is obtained when the compounds are tested according to the procedure of Miller, et al (Proc. Soc. Exp. Biol. Med. 57, 261, 1944). The median protective dose (PD50) was determined in mice given lethal systemic infections. Single doses of compound were given at time of challenge.
(§3) By use of the above methods, the following minimum inhibiting concentration values (MICs in μg/mL), PD50 's in mg/kg, no effect phototoxicity dose in mg/kg and the cytotoxicity IC50 in μg/mL were obtained for representative enantiomers of the invention and compounds of the prior art as shown in the table.
(§4) The in vivo data as PD50 s are reported below the line of MICs for the same compound.

[6] = cytotoxicity, hamster V-79 cells, colony reduction; assay type: cell-based; conditions: 3 hours treatment, colonies counted after 5 days, read-out: Cytotox (cytotoxicity IC50)
Experimental: The cytotoxicity data is obtained using hamster V-79 cells. The cells were suspended in tissue culture medium and grown overnight. Cells were treated with drug for 3 hours, washed free of drug and then replated, and the colonies counted after 5 days. The concentration of drug that reduced colones by 50% relative to control was recorded.
as §3

[7] = system: Prot. rettgeri M 1771; assay: in vitro antibacterial activity, microtitration dilution (MIC), Prot. rettgeri M 1771; assay type: cell-based; conditions: Providencia rettgeri, M1771, read-out: minimum inhibiting concentration (MIC)
Procedure, shortened: as §1

[8] = system: Klebs. pneumoniae MGH-2; assay: in vitro antibacterial activity, microtitration dilution (MIC), Klebs. pneumoniae MGH-2; assay type: cell-based; conditions: Klebsiella pneumoniae, MGH2, read-out: minimum inhibiting concentration (MIC)
Procedure, shortened: as §1

[9] = system: Esch. coli Vogel; assay: in vitro antibacterial activity, microtitration dilution (MIC), Esch. coli Vogel; assay type: cell-based; conditions: Escherichia coli, read-out: minimum inhibiting concentration (MIC)
Procedure, shortened: as §1

[10] = system: Pseud. aeruginosa UI-18; assay: median protective dose in mice given lethal systemic infections, Pseud. aeruginosa UI-18; assay type: in vivo; conditions: Pseudomonas aeruginosa, single dose at time of challenge, read-out: median protective dose (PD50)
Experimental: as §2, §3, §4

[11] = system: Esch. coli Vogel; assay: median protective dose in mice given lethal systemic infections, Esch. coli Vogel; assay type: in vivo; conditions: Escherichia coli, single dose at time of challenge, read-out: median protective dose (PD50)
Experimental: as §2, §3, §4

[12] = system: Strep. pyogenes C-203; assay: in vitro antibacterial activity, microtitration dilution (MIC), Strep. pyogenes C-203; assay type: cell-based; conditions: Streptococcus pyogenes, C203, read-out: minimum inhibiting concentration (MIC)
Procedure, shortened: as §1

[13] = system: Ent. cloacae MA2646; assay: in vitro antibacterial activity, microtitration dilution (MIC), Ent. cloacae MA2646; assay type: cell-based; conditions: Enterobacter cloacae, read-out: minimum inhibiting concentration (MIC)
Procedure, shortened: as §1

[14] = in vivo; parameters: species or system mice; conditions: mouse, po
Experimental: The phototoxicity data is obtained using depilated mice. The compound was administered orally each day for four successive days, followed each day by 3 hours of UVA radiation. The mice were examined for any positive signs (redness, erythema) relative to control animals. The no effect dose and the 50% effect dose were determined. By use of the above methods, the following minimum inhibiting concentration values (MICs in μg/mL), PD50 's in mg/kg, no effect phototoxicity dose in mg/kg and the cytotoxicity IC50 in μg/mL were obtained for representative enantiomers of the invention and compounds of the prior art as shown in the table.

[15] = system: Pseud. aeruginosa UI-18; assay: in vitro antibacterial activity, microtitration dilution (MIC), Pseud. aeruginosa UI-18; assay type: cell-based; conditions: Pseudomonas aeruginosa, UI18, read-out: minimum inhibiting concentration (MIC)
Procedure, shortened: as §1

[16] = system: Strep. pyogenes C-203; assay: median protective dose in mice given lethal systemic infections, Strep. pyogenes C-203; assay type: in vivo; conditions: Streptococcus pyogenes, single dose at time of challenge, read-out: median protective dose (PD50)
Experimental: as §2, §3, §4

| SMILES | MIC [1] | MIC [2] | MIC [3] | MIC [4] | ED50 ([5]; SV1, PO) | ED50 ([5]; SV1, SC) | CC50 at 3 h [6] | MIC [7] | MIC [8] | MIC [9] | ED50 ([10]; UI18, PO) | ED50 ([10]; UI18, SC) | ED50 ([11]; PO) | ED50 ([11]; SC) | MIC [12] | MIC [13] | NOAEL at 96 h [14] | MIC [15] | ED50 ([16]; C203, PO) | ED50 ([16]; C203, SC) |
| --- | --- | --- | --- | --- | --- | --- | --- | --- | --- | --- | --- | --- | --- | --- | --- | --- | --- | --- | --- | --- |
| C[C@H](N)[C@H]1CCN(c2nc3c(cc2F)c(=O)c(C(=O)O)cn3C2CC2)C1 [Example 6, 3S,1S-1-cyclopropyl-6-fluoro-7-[3-(1-aminoethyl)-1-pyrrolidinyl]-1,4-dihydro-4-oxo-1,8-naphthyridine-3-carboxylic acid] | 0.1 µg/mL (≈ 0.277 µM) | 0.025 µg/mL (≈ 0.0694 µM) | 0.2 µg/mL (≈ 0.555 µM) | 0.05 µg/mL (≈ 0.139 µM) | 28 mg/kg | 10 mg/kg | 77 µg/mL (≈ 214 µM) | 0.4 µg/mL (≈ 1.11 µM) | 0.2 µg/mL (≈ 0.555 µM) | 0.05 µg/mL (≈ 0.139 µM) | 96 mg/kg | 25 mg/kg | 8 mg/kg | 1 mg/kg | 0.05 µg/mL (≈ 0.139 µM) | 0.05 µg/mL (≈ 0.139 µM) | > 100 mg/kg | 1.6 µg/mL (≈ 4.44 µM) | – | – |
| CCN[C@H](C)[C@@H]1CCN(c2c(F)cc3c(=O)c(C(=O)O)cn(C4CC4)c3c2OC)C1 [Example 17] | 0.013 µg/mL (≈ 0.0311 µM) | 0.003 µg/mL (≈ 0.00719 µM) | 0.013 µg/mL (≈ 0.0311 µM) | 0.003 µg/mL (≈ 0.00719 µM) | – | – | 130 µg/mL (≈ 311 µM) | 0.8 µg/mL (≈ 1.92 µM) | 0.4 µg/mL (≈ 0.958 µM) | 0.2 µg/mL (≈ 0.479 µM) | – | – | 14 mg/kg | 4 mg/kg | 0.003 µg/mL (≈ 0.00719 µM) | 0.2 µg/mL (≈ 0.479 µM) | > 100 mg/kg | 3.1 µg/mL (≈ 7.43 µM) | 2 mg/kg | 0.6 mg/kg |
| C[C@H](N)[C@@H]1CCN(c2nc3c(cc2F)c(=O)c(C(=O)O)cn3C2CC2)C1 (relative stereo) [reference compound] | 0.05 µg/mL (≈ 0.139 µM) | – | 0.05 µg/mL (≈ 0.139 µM) | – | – | – | 48 µg/mL (≈ 133 µM) | 0.2 µg/mL (≈ 0.555 µM) | 0.1 µg/mL (≈ 0.277 µM) | – | – | – | – | – | – | 0.05 µg/mL (≈ 0.139 µM) | 55 mg/kg | – | – | – |
| CN[C@@H](C)[C@@H]1CCN(c2c(F)c(N)c3c(=O)c(C(=O)O)cn(C4CC4)c3c2F)C1 [Example 42, 3R,1S-5-amino-1-cyclopropyl-6,8-difluoro-7-[3-(1-N-methylaminoethyl)-1-pyrrolidinyl]-1,4-dihydro-4-oxo-3-quinoline carboxylic acid] | 0.013 µg/mL (≈ 0.032 µM) | 0.003 µg/mL (≈ 0.00738 µM) | 0.006 µg/mL (≈ 0.0148 µM) | 0.006 µg/mL (≈ 0.0148 µM) | – | – | 17 µg/mL (≈ 41.8 µM) | 0.1 µg/mL (≈ 0.246 µM) | 0.05 µg/mL (≈ 0.123 µM) | 0.025 µg/mL (≈ 0.0615 µM) | – | – | 3 mg/kg | 0.4 mg/kg | 0.006 µg/mL (≈ 0.0148 µM) | 0.025 µg/mL (≈ 0.0615 µM) | < 30 mg/kg | 0.8 µg/mL (≈ 1.97 µM) | 0.55 mg/kg | 0.25 mg/kg |
| CN[C@H](C)[C@@H]1CCN(c2c(F)c(N)c3c(=O)c(C(=O)O)cn(C4CC4)c3c2F)C1 [Example 41, 3R,1R-5-amino-1-cyclopropyl-6,8-difluoro-7-[3-(1-N-methylaminoethyl)-1-pyrrolidinyl]-1,4-dihydro-4-oxo-3-quinoline carboxylic acid] | 0.013 µg/mL (≈ 0.032 µM) | 0.003 µg/mL (≈ 0.00738 µM) | 0.006 µg/mL (≈ 0.0148 µM) | 0.006 µg/mL (≈ 0.0148 µM) | – | – | 33 µg/mL (≈ 81.2 µM) | 0.2 µg/mL (≈ 0.492 µM) | 0.1 µg/mL (≈ 0.246 µM) | 0.05 µg/mL (≈ 0.123 µM) | – | – | 3 mg/kg | 2 mg/kg | 0.006 µg/mL (≈ 0.0148 µM) | 0.05 µg/mL (≈ 0.123 µM) | 30 mg/kg | 0.8 µg/mL (≈ 1.97 µM) | 2 mg/kg | 0.7 mg/kg |
